The record followed here is patent US12054510B2, “2′ and/or 5′ amino-acid ester phosphoramidate 3′-deoxy adenosine derivatives as anti-cancer compounds” (Nucana plc, priority 2014, dated 2024).

For this assay, the system named is BxPC-3-Luc. Description: Solid tumour and haematological malignancy assay (CellTiterGlo). It counts as cell-based. The conditions noted are these: 72 hr, Table VII. Here is the method:
In vitro viability assay were performed to assess the effects of compounds on cell viability in selected cell lines over 72 hr using the CellTiterGlo (CTG, Promega-G7573) assay. The tests were performed in duplicates with treatment of compounds at 9 points, 3.16 folds titration in 96 well plates over ˜72 hr. The compound starting concentrations were […]. Cell viability assay using CellTiterGlo in 96-well plate were performed. Compound treatment 72 hrs, standard growth conditions, duplicates. Compounds were dissolved to 40 mM with thawed […]. Compounds were serially diluted at 3.16 fold in thawed DMSO, and warmed to 37° C. before being dissolved in media (2 μl+200 μl). After compounds were dissolved in media, media containing compounds were warmed to 37° C. in incubator and then compounds in media were added to cell plates (50 μl+50 μl) in duplicates. The compounds' final concentrations were from 198M to 19.9 nM. All compound solubilities were checked and recorded again, then the plates were transferred to CO2 tissue culture incubator immediately and incubated for 3 days. DMSO final concentration is 0.5%.

In the case of `CC(NP(=O)(OC[C@@H]1C[C@@H](O)[C@H](n2cnc3c(N)nc(Cl)nc32)O1)Oc1cccc2ccccc12)C(=O)OCc1ccccc1` (stereo in doubt) [S, (2R)-benzyl 2-((((2S,4R,5R)-5-(6-amino-2-chloro-9H-purin-9-yl)-4-hydroxytetrahydrofuran-2-yl)methoxy)(naphthalen-1-yloxy)phosphorylamino)propanoate], the MI % is given as 82.6%.

As for `Nc1nc(Cl)nc2c1ncn2[C@@H]1O[C@H](CO)C[C@H]1O` [2-Cl-cordycepin, 3′-deoxy-2-chloroadenosine, reference compound], the MI % is −1.3%.
